From patent US20260166029A1, “METHODS AND SYSTEMS FOR TREATING DISEASE USING AN ATR/CHK1 SIGNALING PATHWAY INHIBITOR” (Acrivon Therapeutics, Inc., priority 2022, published 2026)
Like-named read-outs stand apart in the source and are kept apart here.

Experiments:
Format in all cases: cell-based
BxPC3 = assay: Cell Titer Glo 2.0 relative cell viability, 72 h (Example 10); details: Homo sapiens, BXPC-3, BxPC3 cell line, read-out: Abs IC50
Experimental: (§1) The present Example provides experimental evidence that cell lines predicted to be sensitive to a Chk1 inhibitor (e.g., prexasertib, are also sensitive to Wee1 inhibitors (e.g., adavosertib (AZD1775, MK1775) and azenosertib (Zn-C3)). Cell lines were treated with increasing doses of either prexasertib, adavosertib, or azenosertib, and relative cell viability against a DMSO control was assessed 72 h after drug treatment using Cell Titer Glo 2.0 (Promega) and a SpectraMax microplate reader. The results are shown in FIGS. 19A-19C. Error bars represent standard deviations from quadruplicate samples.

OVCAR3 = assay: as above; details: Homo sapiens, OVCAR-3, OVCAR3 cell line, read-out: Abs IC50
Experimental: as §1

A2780 [1] = assay: as above; details: Homo sapiens, A2780 cell line, read-out: Abs IC50
Experimental: as §1

PC3 [2] = assay: as above; details: Homo sapiens, PC-3, PC3 cell line, read-out: Abs IC50
Experimental: as §1

A375 = assay: as above; details: Homo sapiens, A-375, A375 cell line, read-out: Abs IC50
Experimental: as §1

HeLa = assay: as above; details: Homo sapiens, HeLa cell line, read-out: Abs IC50
Experimental: as §1

T47D [3] = assay: as above; details: Homo sapiens, T47D cell line, read-out: Abs IC50
Experimental: as §1

KLE = assay: Cell Titer Glo 2.0 viability, prexasertib alone or with gemcitabine, three days (Example 11); details: Homo sapiens, 72 h, read-out: Prexasertib Relative IC50
Experimental: (§2) The present Example provides experimental evidence that treatment with gemcitabine sensitizes human cancer cell lines to treatment with prexasertib. A panel of human cancer cell lines were treated with various concentrations of prexasertib (0.17, 0.51, 1.5, 4.6, 13.7, 31.2, 123.5, 370.4, 1111, 3333, and 10000 nM) alone or in combination with various low dose concentrations of gemcitabine (0.53 and 2.7 nM). The panel of cell lines included ovarian, endometrial, bladder, breast, and prostate cancer cell lines. Two ovarian cancer cell lines (OVCAR3 and OV90) were used to generate acquired prexasertib resistant cells. For both cell lines, the parental cells (OVCAR3-P and OV90-P) and acquired prexasertib resistant cells (OVCAR3-R and OV90-R) were tested. Additionally, the panel included three cell lines that are naïve resistant to prexasertib (SW780, T47D, and PC3). After three days of treatment, cell viability relative to DMSO control was assessed using Cell Titer Glo 2.0 (Promega).
(§3) To determine whether gemcitabine and prexasertib acts synergistically, additively, or potentially antagonistically, the panel of human cancer cell lines were treated with various concentrations of prexasertib (0.17, 0.51, 1.5, 4.6, 13.7, 31.2, 123.5, 370.4, 1111, 3333, and 10000 nM) in combination with various concentrations of gemcitabine (1, 3, 13, 67, 333, 1667, 8333 nM). After three days treatment, cell viability relative to DMSO control was assessed using Cell Titer Glo 2.0 (Promega). Drug combination effect was evaluated using SynergyFinder 2.0, see Ianevski et al., Nucleic Acids Res., gkaa216 (2020), and is presented in Table 15 as a Bliss synergy score for each cell line. Bliss synergy scores greater than 10 are indicative of a synergistic effect between prexasertib and gemcitabine, while scores between 10 and −10 are indicative of an additive effect and scores less than −10 are indicative of an antagonistic effect. […] Taken together, the results of this Example support use of a combination of prexasertib and gemcitabine (e.g., low doses of gemcitabine) for treatment of predicted non-responders to prexasertib treatment.

SW780 = assay: as above; details: Homo sapiens, 72 h, gemcitabine 0.53 nM
Experimental: as §2, §3

OVCAR3-R = assay: as above; details: Homo sapiens, 72 h
Experimental: as §2, §3

A2780 [4] = assay: as above; details: Homo sapiens, A2780, 72 h
Experimental: as §2, §3

PC3 [5] = assay: as above; details: Homo sapiens, PC-3, 72 h, gemcitabine 0.53 nM, read-out: Prexasertib Relative IC50
Experimental: as §2, §3

TCCSUP = assay: as above; details: Homo sapiens, TCC-SUP, 72 h
Experimental: as §2, §3

OV90-R = assay: as above; details: Homo sapiens, 72 h, gemcitabine 0.53 nM, read-out: Prexasertib Relative IC50
Experimental: as §2, §3

OV90-P = assay: as above; details: Homo sapiens, 72 h
Experimental: as §2, §3

OVCAR3-P = assay: as above; details: Homo sapiens, 72 h
Experimental: as §2, §3

AN3CA = assay: as above; details: Homo sapiens, AN3-CA, 72 h
Experimental: as §2, §3

T47D [6] = assay: as above; details: Homo sapiens, 72 h, gemcitabine 0.53 nM, read-out: Prexasertib Relative IC50
Experimental: as §2, §3

[7] = gemcitabine 0.53 nM, read-out: Prexasertib Absolute IC50
[8] = gemcitabine 0.53 nM, read-out: Prexasertib Relative IC50
[9] = gemcitabine 2.7 nM, read-out: Prexasertib Absolute IC50
[10] = gemcitabine 2.7 nM, read-out: Prexasertib Relative IC50
[11] = gemcitabine 0 nM, read-out: Prexasertib Relative IC50
[12] = gemcitabine 0 nM, read-out: Prexasertib Absolute IC50

IC50 (BxPC3): 1.4 nM
IC50 (OVCAR3): 0.9 nM
IC50 (A2780 [1]): > 10000 nM
IC50 (PC3 [2]): > 10000 nM
IC50 (A375): 1.8 nM
IC50 (HeLa): 15 nM
IC50 (T47D [3]): > 10000 nM
IC50 (SW780; read-out: Prexasertib Absolute IC50): 0.3 nM
IC50 (SW780; read-out: Prexasertib Relative IC50): 0.06 nM
IC50 (OVCAR3-R; [7]): 106 nM
IC50 (OVCAR3-R; [8]): 30 nM
IC50 (OVCAR3-R; [9]): 6.2 nM
IC50 (OVCAR3-R; [10]): 4 nM
IC50 (A2780 [4]; [11]): 8.5 nM
IC50 (A2780 [4]; [7]): 0.5 nM
IC50 (A2780 [4]; [8]): 0.3 nM
IC50 (PC3 [5]): 0.15 nM
IC50 (OVCAR3-P; [12]): 16 nM
IC50 (OVCAR3-P; [11]): 8 nM
IC50 (OVCAR3-P; [7]): 3 nM
IC50 (OVCAR3-P; [8]): 1.4 nM
IC50 (OVCAR3-P; [9]): 0.2 nM
IC50 (OVCAR3-P; [10]): 0.1 nM
IC50 (T47D [6]): 0.22 nM
Compound: COc1cccc(OCCCN)c1-c1cc(Nc2cnc(C#N)cn2)n[nH]1 [prexasertib, 5-(5-(2-(3-aminopropoxy)-6-methoxyphenyl)-1H-pyrazol-3-ylamino)pyrazine-2-carbonitrile]
IC50 (KLE; gemcitabine 0 nM): 0.36 nM
IC50 (KLE; gemcitabine 0.53 nM): 0.02 nM
IC50 (TCCSUP; [12]): 2.8 nM
IC50 (TCCSUP; [11]): 1.4 nM
IC50 (TCCSUP; [7]): 0.08 nM
IC50 (TCCSUP; [8]): 0.04 nM
IC50 (OV90-R): 0.03 nM
IC50 (OV90-P; [12]): 49 nM
IC50 (OV90-P; [11]): 0.5 nM
IC50 (OV90-P; [7]): 0.93 nM
IC50 (OV90-P; [8]): 0.14 nM
IC50 (AN3CA; [12]): 2.2 nM
IC50 (AN3CA; [11]): 1.5 nM
IC50 (AN3CA; [7]): 0.3 nM
IC50 (AN3CA; [8]): 0.2 nM
